According to the NIST ThermoML archive (doi:10.1016/j.jct.2017.04.007):
Numbers after ± are expanded uncertainties.

Conditions: Liquid; for mass density: Vibrating tube method; for speed of sound: Frequency=3 MHz, Pulse-echo method

CCOC(F)(C(F)(F)C(F)(F)C(F)(F)F)C(F)(C(F)(F)F)C(F)(F)F (centres undefined) [2-trifluoromethyl-3-ethoxydodecafluorohexane]
Conditions | mass density, 333.15 K [kg/m3] | mass density, 343.15 K [kg/m3] | mass density, 353.15 K [kg/m3] | mass density, 363.15 K [kg/m3] | mass density, 373.15 K [kg/m3] | mass density, 383.15 K [kg/m3] | mass density, 393.15 K [kg/m3] | speed of sound, 343.15 K [m/s] | speed of sound, 353.15 K [m/s]
100 kPa | – | 1523.6 ± 0.7 | 1501.6 ± 0.7 | 1478.1 ± 0.8 | 1454.4 ± 0.8 | 1430.4 ± 0.8 | 1405.6 ± 0.8 | 534.8 ± 1.3 | 509 ± 1.3
10000 kPa | – | 1559.1 ± 0.8 | 1540 ± 0.8 | 1520.4 ± 0.8 | 1500.9 ± 0.8 | 1481.2 ± 0.8 | 1461.3 ± 0.9 | – | –
20000 kPa | – | 1587.8 ± 1 | 1570.5 ± 1 | 1553 ± 0.9 | 1535.8 ± 0.9 | 1518.4 ± 0.9 | 1500.9 ± 0.9 | 667.7 ± 1.5 | 647.6 ± 1.6
30000 kPa | – | 1611.9 ± 1.2 | 1596 ± 1.2 | 1579.9 ± 1.1 | 1564.2 ± 1.1 | 1548.4 ± 1.1 | 1532.5 ± 1.1 | – | –
40000 kPa | – | 1633 ± 1.4 | 1618 ± 1.4 | 1603 ± 1.4 | 1588.4 ± 1.3 | 1573.8 ± 1.3 | 1559 ± 1.3 | 765 ± 1.7 | 747.5 ± 1.7
50000 kPa | – | 1651.7 ± 1.7 | 1637.6 ± 1.7 | 1623.4 ± 1.6 | 1609.6 ± 1.6 | 1595.9 ± 1.6 | 1581.9 ± 1.5 | – | –
60000 kPa | – | 1668.7 ± 2 | 1655.2 ± 2 | 1641.7 ± 1.9 | 1628.5 ± 1.9 | 1615.5 ± 1.8 | 1602.2 ± 1.8 | 844.9 ± 1.8 | 828.9 ± 1.8
70000 kPa | – | 1684.2 ± 2.3 | 1671.3 ± 2.3 | 1658.3 ± 2.2 | 1645.8 ± 2.2 | 1633.3 ± 2.1 | 1620.6 ± 2.1 | – | –
80000 kPa | – | 1698.6 ± 2.6 | 1686.2 ± 2.6 | 1673.6 ± 2.5 | 1661.7 ± 2.5 | 1649.6 ± 2.4 | 1637.1 ± 2.4 | 913.5 ± 2 | 898.5 ± 2
90000 kPa | – | 1712 ± 2.9 | 1700 ± 2.9 | 1687.9 ± 2.8 | 1676.4 ± 2.8 | 1664.6 ± 2.8 | 1652.8 ± 2.7 | – | –
100000 kPa | – | 1724.4 ± 3.3 | 1712.9 ± 3.2 | 1701.2 ± 3.2 | 1689.9 ± 3.1 | 1678.5 ± 3.1 | 1667.1 ± 3 | 974 ± 2.1 | 960.3 ± 2.1
110000 kPa | – | 1736.5 ± 3.6 | 1724.9 ± 3.6 | 1713.7 ± 3.5 | 1702.8 ± 3.4 | 1691.6 ± 3.4 | 1680.5 ± 3.3 | – | –
120000 kPa | – | 1747.8 ± 4 | 1736.6 ± 3.9 | 1725.3 ± 3.8 | 1714.7 ± 3.8 | 1704 ± 3.7 | 1693.2 ± 3.7 | – | –
130000 kPa | 1769.7 ± 4.4 | 1758.4 ± 4.3 | 1747.4 ± 4.2 | 1736.6 ± 4.2 | 1726.2 ± 4.1 | 1715.7 ± 4.1 | 1705.1 ± 4 | – | –
140000 kPa | 1779.5 ± 4.7 | 1768.6 ± 4.7 | 1757.8 ± 4.6 | 1747.3 ± 4.5 | 1737.1 ± 4.5 | 1726.8 ± 4.4 | 1716.3 ± 4.3 | – | –
